pIC50: −log10 of the molar value. “And” between values parts separate entries of the source, which are not always exact repeats. Equal entries are not always repeated. Where two headings read alike, the source gives them in different places.
Tests used:
Format in all cases: cell-based, human
HCT116 p53+/+ = test: Chemosensitivity, 96 h continuous exposure, MTT assay; details: for Selectivity index (ARPE19): IC50 ARPE-19 / IC50 HCT116 p53+/+; for SI (ARPE19): mean IC50 ARPE-19 / mean IC50 HCT116 p53+/+
In short: (§1)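 Cells were seeded overnight at 37 °C (2 × 10^3/well; GBM1 at 3 × 10^3/well on poly-L-ornithine/laminin in Neurobasal with hFGF/rhEGF), then exposed to compound concentration ranges for 96 h. Viability was read by MTT (4 h, formazan in DMSO, A540) and IC50 taken from dose–response curves.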

ARPE-19 = test: Quantification of cellular ATP levels (CellTiterGlo); details: for ATP levels relative to vehicle control: ARPE19, 100μM, 20h; for % ATP Activity (Average): ARPE-19 cells, average of runs, relative to 0 µM = 100
Experimental: ARPE-19 and HCT116 p53^+/+ cells were seeded in 96-well opaque plates at a density of 7500 cells/well. 24 h after seeding, cells were treated for 20 h with a range of concentrations of [[…]]^6+, [L2Zn3]^6+, [[…]]^6+, or vehicle control (2-fold serial dilution from 100-3.125 μM) before determining total cellular ATP content by quantification of luminescence (CellTiterGlo® assay, Promega). ATP levels were normalised relative to levels in vehicle control-treated cells.

HCT116 p53-/- = test: Confocal imaging of autophagic cells (CYTO-ID); details: 3.125 µM, 40 h
Experimental: Cells were seeded in Lumox chamber slides (8-well, Sarstedt) at a density of 1.25 × 10^4 cells/well (ARPE-19) or 5.625 × 10^4 cells/well (HCT116 p53^−/− and HCT116 p53^+/+). 24 h after seeding, cells were treated with 3.125 μM of [L2Cu3]^6+, [L2Zn3]^6+, [L2Mn3]^6+, or vehicle control for 40 h before removal and addition of CYTO-ID Green autophagic dye (1:500 dilution, Enzo Life Sciences) and Hoechst 3342 nuclear counter stain for 30 min at 37 °C. Media was then replaced before imaging using a Zeiss LSM880 confocal laser scanning microscope.

BxPC3 = test: Chemosensitivity, 96 h continuous exposure, MTT assay;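 for SI (NPI): adult human brain neural progenitor non-cancer cells from an epilepsy surgery patient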;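 for Selectivity Index using the NPI non-cancer cell line: adult human brain neural progenitor non-cancer cells from an epilepsy surgery patient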
In short: as §1

DLD-1 = test: as above
In short: as §1

MCF10A non-cancer cells = test: as above
In short: as §1

[1] = HCT116 p53+/+, 96 h, MTT, mean of at least 3 independent experiments, read-out: Mean IC50
[2] = HCT116 p53+/+, read-out: Mean IC50 values
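Throughout, for SI (NPI): adult human brain neural progenitor non-cancer cells from an epilepsy surgery patient.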
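Throughout, for Selectivity Index using the NPI non-cancer cell line: adult human brain neural progenitor non-cancer cells from an epilepsy surgery patient.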

## [Mn+2].[Mn+2].[Mn+2].c1ccc(-c2csc(NCCN(CCNc3nc(-c4ccccn4)cs3)CCNc3nc(-c4ccccn4)cs3)n2)nc1.c1ccc(-c2csc(NCCN(CCNc3nc(-c4ccccn4)cs3)CCNc3nc(-c4ccccn4)cs3)n2)nc1 [[L2Mn3]6+]
HCT116 p53+/+; HCT116 p53+/+, 96 h, MTT, individual run, read-out: IC50 values for each replicate
  pIC50: 5.75 and 6.28 and 5.85 and 5.84
HCT116 p53+/+; [1]
  pIC50: 5.88
HCT116 p53+/+; [2]
  pIC50: 5.88
HCT116 p53+/+
  Selectivity index (ARPE19): 2.17
  SI (ARPE19): 2.173
HCT116 p53+/+; cancer cells vs non-cancer cells (Fig. 5f)
  preferential selectivity towards cancer cells: ~ 2 fold
ARPE-19
  ATP levels relative to vehicle control: ~ 40%
ARPE-19; 3.125 µM complex
  % ATP Activity (Average): 82.98%
ARPE-19; 6.25 µM complex
  % ATP Activity (Average): 75.81%
ARPE-19; 12.5 µM complex
  % ATP Activity (Average): 71.57%
ARPE-19; 25 µM complex
  % ATP Activity (Average): 63.68%
ARPE-19; 50 µM complex
  % ATP Activity (Average): 53.48%
ARPE-19; 100 µM complex
  % ATP Activity (Average): 40.46%
HCT116 p53-/-
  induction of vacuoles / autophagy (CYTO-ID): most pronounced
HCT116 p53-/-; listed as Mn^2+ complex
  induction of vacuoles / autophagy (CYTO-ID): also induced autophagy

## CC(=O)[O-].CC(=O)[O-].CC(=O)[O-].CC(=O)[O-].CC(=O)[O-].CC(=O)[O-].[Zn+2].[Zn+2].[Zn+2].c1ccc(-c2csc(NCCN(CCNc3nc(-c4ccccn4)cs3)CCNc3nc(-c4ccccn4)cs3)n2)nc1.c1ccc(-c2csc(NCCN(CCNc3nc(-c4ccccn4)cs3)CCNc3nc(-c4ccccn4)cs3)n2)nc1 [[L2Zn3]6+]
BxPC3; BXPC3, mean of replicates, read-out: Mean IC50
  pIC50: 6.49
BxPC3; BXPC3, read-out: Mean IC50 values
  pIC50: 6.49
BxPC3; BxPC3, 96 h, MTT, individual run, read-out: IC50 values for each replicate
  pIC50: 6.64 and 6.83 and 6.23 and 6.27 and 6.77 and 6.60
BxPC3; BxPC3, 96 h, MTT, mean of at least 3 independent experiments, read-out: Mean IC50
  pIC50: 6.49
BxPC3; IC50 ARPE-19 / IC50 BXPC3
  Selectivity index (ARPE19): 491.41
BxPC3; IC50 MCF10A / IC50 BXPC3
  Selectivity index (MCF10A): 505.12
BxPC3; IC50 NP1 / IC50 BXPC3
  Selectivity Index using the NPI non-cancer cell line: 24.31
BxPC3; mean IC50 ARPE-19 / mean IC50 BxPC3
  SI (ARPE19): 491.41
BxPC3; mean IC50 MCF10A / mean IC50 BxPC3
  SI (MCF10A): 505.12
BxPC3; mean IC50 NP1 / mean IC50 BxPC3
  SI (NPI): 24.31
BxPC3; ratio of IC50, BXPC3
  Relative potency (+ anion to no anion), Ratio + anion:no anion: 1
BxPC3; ratio of SI (ARPE-19), BXPC3
  Selectivity indices relative to ARPE-19, Ratio + anion:no anion: 1
BxPC3; ratio of SI (MCF 10A), BXPC3
  Selectivity indices relative to MCF10A, Ratio + anion:no anion: 1
DLD-1; DLD-1, 96 h, MTT, individual run, read-out: IC50 values for each replicate
  pIC50: 6.67 and 7.05 and 7.08 and 6.85 and 6.65 and 6.68
DLD-1; DLD-1, 96 h, MTT, mean of at least 3 independent experiments, read-out: Mean IC50
  pIC50: 6.77
DLD-1; DLD-1, mean of replicates, read-out: Mean IC50
  pIC50: 6.77
DLD-1; DLD-1, read-out: Mean IC50 values
  pIC50: 6.77
DLD-1; IC50 ARPE-19 / IC50 DLD-1
  Selectivity index (ARPE19): 925.00
DLD-1; IC50 MCF10A / IC50 DLD-1
  Selectivity index (MCF10A): 950.82
DLD-1; IC50 NP1 / IC50 DLD-1
  Selectivity Index using the NPI non-cancer cell line: 45.76
DLD-1; mean IC50 ARPE-19 / mean IC50 DLD-1
  SI (ARPE19): 925.00
DLD-1; mean IC50 MCF10A / mean IC50 DLD-1
  SI (MCF10A): 950.82
DLD-1; mean IC50 NP1 / mean IC50 DLD-1
  SI (NPI): 45.76
DLD-1; ratio of IC50, DLD-1
  Relative potency (+ anion to no anion), Ratio + anion:no anion: 1
DLD-1; ratio of SI (ARPE-19), DLD-1
  Selectivity indices relative to ARPE-19, Ratio + anion:no anion: 1
DLD-1; ratio of SI (MCF 10A), DLD-1
  Selectivity indices relative to MCF10A, Ratio + anion:no anion: 1
HCT116 p53+/+; [1]
  pIC50: 6.33
HCT116 p53+/+; HCT116 p53+/+, mean of replicates, read-out: Mean IC50
  pIC50: 6.33
HCT116 p53+/+; [2]
  pIC50: 6.33
HCT116 p53+/+
  Selectivity index (ARPE19): 337.45 and 337.23
  SI (ARPE19): 337.45
HCT116 p53+/+; IC50 MCF10A / IC50 HCT116 p53+/+
  Selectivity index (MCF10A): 346.87
HCT116 p53+/+; IC50 NP1 / IC50 HCT116 p53+/+
  Selectivity Index using the NPI non-cancer cell line: 16.70
HCT116 p53+/+; mean IC50 MCF10A / mean IC50 HCT116 p53+/+
  SI (MCF10A): 346.87
HCT116 p53+/+; mean IC50 NP1 / mean IC50 HCT116 p53+/+
  SI (NPI): 16.70
HCT116 p53+/+; ratio of IC50, HCT116 p53+/+
  Relative potency (+ anion to no anion), Ratio + anion:no anion: 1
HCT116 p53+/+; ratio of SI (ARPE-19), HCT116 p53+/+
  Selectivity indices relative to ARPE-19, Ratio + anion:no anion: 1
HCT116 p53+/+; ratio of SI (MCF 10A), HCT116 p53+/+
  Selectivity indices relative to MCF10A, Ratio + anion:no anion: 1
MCF10A non-cancer cells; MCF10A non-cancer, read-out: Mean IC50 values
  pIC50: 3.79
MCF10A non-cancer cells; MCF10A, 96 h, MTT, individual run, read-out: IC50 values for each replicate
  pIC50: 3.77 and 3.75 and 3.85
MCF10A non-cancer cells; MCF10A, 96 h, MTT, mean of at least 3 independent experiments, read-out: Mean IC50
  pIC50: 3.79
MCF10A non-cancer cells; MCF10A, mean of replicates, read-out: Mean IC50
  pIC50: 3.79
MCF10A non-cancer cells; ratio of IC50, MCF10A
  Relative potency (+ anion to no anion), Ratio + anion:no anion: 1
ARPE-19
  ATP levels relative to vehicle control: > 70%
ARPE-19; 3.125 µM complex
  % ATP Activity (Average): 91.98%
ARPE-19; 6.25 µM complex
  % ATP Activity (Average): 88.71%
ARPE-19; 12.5 µM complex
  % ATP Activity (Average): 84.92%
ARPE-19; 25 µM complex
  % ATP Activity (Average): 79.86%
ARPE-19; 50 µM complex
  % ATP Activity (Average): 79.43%
ARPE-19; 100 µM complex
  % ATP Activity (Average): 73.40%
HCT116 p53-/-
  induction of vacuoles / autophagy (CYTO-ID): induced the appearance of vacuoles

— article PMC8222254, “Self-assembly of an anion receptor with metal-dependent kinase inhibition and potent in vitro anti-cancer properties” (Nature Communications, 2021)
